PMC6449304, “Novel parameter describing restriction endonucleases: Secondary-Cognate-Specificity and chemical stimulation of TsoI leading to substrate specificity change” (Applied Microbiology and Biotechnology, 2019)

Target: T1, TsoI (Thermus scotoductus, UniProt T1RQY5)
T1 construct: gene tsoIRM; native enzyme purified from Thermus scotoductus RFL4; bifunctional REase-MTase, TspDTI subfamily
T1 sequence (T1RQY5 1-1116): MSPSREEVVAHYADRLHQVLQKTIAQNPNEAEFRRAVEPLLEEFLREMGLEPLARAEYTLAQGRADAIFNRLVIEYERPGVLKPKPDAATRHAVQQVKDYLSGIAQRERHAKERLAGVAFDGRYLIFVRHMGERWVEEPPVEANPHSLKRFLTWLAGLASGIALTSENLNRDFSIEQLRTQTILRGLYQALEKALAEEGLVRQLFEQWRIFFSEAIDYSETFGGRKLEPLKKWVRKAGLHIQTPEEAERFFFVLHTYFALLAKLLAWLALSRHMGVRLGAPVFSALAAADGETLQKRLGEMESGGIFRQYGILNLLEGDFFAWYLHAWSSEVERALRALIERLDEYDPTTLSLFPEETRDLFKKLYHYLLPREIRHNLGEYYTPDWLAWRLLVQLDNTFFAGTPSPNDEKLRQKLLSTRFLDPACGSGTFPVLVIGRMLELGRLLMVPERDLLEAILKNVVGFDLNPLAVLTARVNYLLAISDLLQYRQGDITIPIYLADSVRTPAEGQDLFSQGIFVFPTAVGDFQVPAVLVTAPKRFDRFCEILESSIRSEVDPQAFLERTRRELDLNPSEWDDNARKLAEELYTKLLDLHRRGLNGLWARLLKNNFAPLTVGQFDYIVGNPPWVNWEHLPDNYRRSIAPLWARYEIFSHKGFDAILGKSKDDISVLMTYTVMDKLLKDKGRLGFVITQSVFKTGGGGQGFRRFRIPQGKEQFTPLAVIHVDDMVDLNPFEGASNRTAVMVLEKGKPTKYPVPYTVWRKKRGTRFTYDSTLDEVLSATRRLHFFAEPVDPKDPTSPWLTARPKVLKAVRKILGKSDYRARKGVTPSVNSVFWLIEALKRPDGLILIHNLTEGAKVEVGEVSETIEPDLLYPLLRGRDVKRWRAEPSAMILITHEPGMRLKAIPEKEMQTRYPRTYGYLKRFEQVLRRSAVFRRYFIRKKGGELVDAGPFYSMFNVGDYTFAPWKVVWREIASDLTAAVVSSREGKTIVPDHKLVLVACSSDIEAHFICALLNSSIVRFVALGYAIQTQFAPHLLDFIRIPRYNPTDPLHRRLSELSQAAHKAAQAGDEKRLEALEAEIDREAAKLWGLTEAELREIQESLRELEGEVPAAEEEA
Test: DNA cleavage assay, agarose gel (stimulation of secondary-cognate-specificity cleavage)
Type: biochemical
Settings: pUC19 supercoiled DNA; 500 uM compound (31.25-500 uM tested); 10 mM Tris-HCl pH 7.5, 10 mM MgCl2, 50 mM NaCl, 55 °C, 1 h; activator, presumed SAM-binding motif

Nc1ncnc2c1ncn2[C@@H]1O[C@H](CSC[C@H](N)C(=O)O)[C@@H](O)[C@H]1O [SAC, S-adenosyl-L-cysteine]
DNA cleavage assay, agarose gel (stimulation of secondary-cognate-specificity cl): efficiency of TsoI SCS cleavage is significantly stimulated by high concentrations of SAC
